Test results taken from US20250011368A1, “DLL3 TARGETING PEPTIDES AND CONSTRUCTS THEREOF” (MARIANA ONCOLOGY INC., priority 2023, published 2025).
pKd: −log10 of the molar value. Numbered stars: 1 amine (or outer) side, 2 acyl side, 3 side chain; on linkers, the order of the positions; unused ones are H or OH. Bridge positions count the residues as written; N and C are the ends. Square brackets hold non-standard residues; d marks the D form. Side chains are listed from the residue outwards. Peptide text beside a SMILES is read from it. * marks the point of attachment. ξ: configuration not given here. X9 = O=C(O)CN1CCN(CC(=O)O)CCN(CC(=O)NCCCOCCOCCOCCCN*)CCN(CC(=O)O)CC1; DOTA = O=C(O)CN1CCN(CC(=O)O)CCN(CC(=O)*)CCN(CC(=O)O)CC1; X3 = CC[C@H](c1c[nH]c2ccccc12)[C@H](N[*:1])C(=O)[*:2]; Trp(5-F) = N[C@@H](Cc1c[nH]c2ccc(F)cc12)C(=O)O; Trp(7-aza) = N[C@@H](Cc1c[nH]c2ncccc12)C(=O)O; Lys(Me3) = C[N+](C)(C)CCCC[C@H](N)C(=O)O; PEG8 = NCCOCCOCCOCCOCCOCCOCCOCCOCCC(=O)O; γGlu = O=C(O)[C@H](CCC(=O)[*:2])N[*:1]; 1Nal = N[C@@H](Cc1cccc2ccccc12)C(=O)O; 2Nal = N[C@@H](Cc1ccc2ccccc2c1)C(=O)O; Nva(3-Et) = CCC(CC)[C@H](N)C(=O)O; Suc = O=C(CCC(=O)[*:2])[*:1]; NMeA = CN[C@@H](C)C(=O)O; Aze = O=C(O)[C@@H]1CCN1; Abu = CC[C@H](N)C(=O)O; ξD = NC(CC(=O)O)C(=O)O; Sar = CNCC(=O)O

What follows are compounds tested against T1, human DLL3 (Homo sapiens, UniProt Q9NYJ7) (assay: Affinity determination by Surface Plasmon Resonance (SPR)). Conditions: 25° C., biotinylated human DLL3 immobilized on streptavidin sensor chip, 1:1 binding model; read-out: SPR KD.
T1 sequence (Q9NYJ7 27-618): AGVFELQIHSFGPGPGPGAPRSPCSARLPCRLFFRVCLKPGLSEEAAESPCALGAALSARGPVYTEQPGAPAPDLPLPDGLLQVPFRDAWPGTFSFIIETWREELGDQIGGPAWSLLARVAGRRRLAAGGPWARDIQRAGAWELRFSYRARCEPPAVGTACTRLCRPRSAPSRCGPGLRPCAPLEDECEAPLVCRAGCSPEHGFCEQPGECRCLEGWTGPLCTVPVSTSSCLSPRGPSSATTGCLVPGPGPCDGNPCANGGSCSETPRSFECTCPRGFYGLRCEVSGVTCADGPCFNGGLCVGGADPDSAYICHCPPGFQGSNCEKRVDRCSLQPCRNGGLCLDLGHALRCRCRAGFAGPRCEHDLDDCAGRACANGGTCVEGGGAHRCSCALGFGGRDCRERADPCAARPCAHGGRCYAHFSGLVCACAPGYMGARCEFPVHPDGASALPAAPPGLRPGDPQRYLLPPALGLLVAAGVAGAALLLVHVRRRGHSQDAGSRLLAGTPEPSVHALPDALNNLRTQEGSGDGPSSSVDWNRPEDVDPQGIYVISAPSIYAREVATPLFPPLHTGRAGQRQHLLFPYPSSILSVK
Assay type: binding
Summary of the method: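 Kinetic and affinity constants were derived by fitting sensorgrams to a 1:1 binding model. Graded compound concentrations flowed at 100 μL/minute in 20 mM phosphate running buffer with 2% DMSO over streptavidin-immobilized biotinylated human DLL3, reference-subtracted.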

`CC[C@H](C)[C@H](NC(=O)[C@@H](NC(=O)[C@H](Cc1c[nH]c2ccccc12)NC(C)=O)[C@@H](C)O)C(=O)N[C@H]1CSSC[C@@H](C(=O)N[C@@H](Cc2c[nH]c3ccccc23)C(=O)N(C)CC(=O)N[C@H](CCCCNC(=O)CN2CCN(CC(=O)O)CCN(CC(=O)O)CCN(CC(=O)O)CC2)C(N)=O)NC(=O)[C@H](CC(=O)O)NC(=O)[C@H](Cc2cnc[nH]2)NC(=O)[C@H](Cc2c[nH]c3ccccc23)NC(=O)[C@H](CC(N)=O)NC(=O)[C@H](CC(N)=O)NC1=O` [compound 227, Ac-W-T-I-C(3)-N-N-W-H-D-C(3)-W-Sar-[D-Lys(DOTA)]-NH2] (Ac-WTICNNWHDCW[Sar][dK](DOTA)-NH2; disulfide 4-10) and `CC[C@H](C)[C@H](NC(=O)[C@@H](NC(=O)[C@H](Cc1c[nH]c2ccccc12)NC(C)=O)[C@@H](C)O)C(=O)N[C@H]1CSSC[C@@H](C(=O)N[C@@H](Cc2c[nH]c3ccccc23)C(=O)N2CC[C@H]2C(=O)N[C@H](CCCCNC(=O)CN2CCN(CC(=O)O)CCN(CC(=O)O)CCN(CC(=O)O)CC2)C(N)=O)NC(=O)[C@H](CC(=O)O)NC(=O)[C@H](Cc2cnc[nH]2)NC(=O)[C@H](Cc2c[nH]c3ccccc23)NC(=O)[C@H](CC(N)=O)NC(=O)[C@H](CC(N)=O)NC1=O` [compound 228, Ac-W-T-I-C(3)-N-N-W-H-D-C(3)-W-Aze-[D-Lys(DOTA)]-NH2] (Ac-WTICNNWHDCW[Aze][dK](DOTA)-NH2; disulfide 4-10) fall in the same range of pKd: 8.00 to 9.00 for the first, 8.00 to 9.00 for the second.

Compared with `CC[C@H](C)[C@H](NC(=O)[C@@H](NC(=O)[C@H](Cc1c[nH]c2ccccc12)NC(C)=O)[C@@H](C)O)C(=O)N[C@H]1CSSC[C@@H](C(=O)N[C@@H](Cc2c[nH]c3ccccc23)C(=O)N(C)[C@@H](C)C(=O)N[C@@H](CCCCNC(=O)CN2CCN(CC(=O)O)CCN(CC(=O)O)CCN(CC(=O)O)CC2)C(N)=O)NC(=O)[C@H](CC(=O)O)NC(=O)[C@H](Cc2c[nH]cn2)NC(=O)[C@H](Cc2c[nH]c3ccccc23)NC(=O)[C@H](CC(N)=O)NC(=O)[C@H](CC(N)=O)NC1=O` [compound 229, Ac-W-T-I-C(3)-N-N-W-H-D-C(3)-W-NmeA-[D-Lys(DOTA)]-NH2] (Ac-WTICNNWHDCW[NMeA]K(DOTA)-NH2; disulfide 4-10), `CC[C@H](C)[C@H](NC(=O)[C@@H](NC(=O)[C@H](Cc1c[nH]c2ccccc12)NC(C)=O)[C@@H](C)O)C(=O)N[C@H]1CSSC[C@@H](C(=O)N[C@@H](Cc2c[nH]c3ccccc23)C(=O)N2CCC[C@H]2C(=O)N[C@H](CCCCNC(=O)CN2CCN(CC(=O)O)CCN(CC(=O)O)CCN(CC(=O)O)CC2)C(N)=O)NC(=O)[C@H](CC(=O)O)NC(=O)[C@H](CCCC[N+](C)(C)C)NC(=O)[C@H](Cc2ccc3ccccc3c2)NC(=O)[C@H](CC(N)=O)NC(=O)[C@H](CC(N)=O)NC1=O` [compound 238, Ac-W-T-I-C(3)-N-N-(2Nal)-(K(Me)3)-D-C(3)-W-P-[D-Lys(DOTA)]-NH2] (Ac-WTICNN[2Nal][Lys(Me3)]DCWP[dK](DOTA)-NH2; disulfide 4-10) is higher in pKd: 7.00 to 8.00 for the first, 8.00 to 9.00 for the second.

`CC[C@H](C)[C@H](NC(=O)[C@@H](NC(=O)[C@H](Cc1c[nH]c2ccccc12)NC(C)=O)[C@@H](C)O)C(=O)N[C@H]1CSSC[C@@H](C(=O)N[C@@H](Cc2c[nH]c3ccccc23)C(=O)N2CCC[C@H]2C(=O)N[C@H](CCCCNC(=O)CNC(=O)CNC(=O)CCC(=O)NCCCOCCOCCOCCCNC(=O)CN2CCN(CC(=O)O)CCN(CC(=O)O)CCN(CC(=O)O)CC2)C(N)=O)NC(=O)[C@H](CC(=O)O)NC(=O)[C@H](Cc2cnc[nH]2)NC(=O)[C@H](Cc2ccc3ccccc3c2)NC(=O)[C@H](CC(N)=O)NC(=O)[C@H](CC(N)=O)NC1=O` [compound 230, Ac-W-T-I-C(3)-N-N-(2Nal)-H-D-C(3)-W-P-[D-Lys(G-G-TTDS-DOTA)]-NH2] (Ac-WTICNN[2Nal]HDCWP[dK]([Gly-Gly-Suc-X9])-NH2; disulfide 4-10) and `CC[C@H](C)[C@H](NC(=O)[C@@H](NC(=O)[C@H](Cc1c[nH]c2ccccc12)NC(C)=O)[C@@H](C)O)C(=O)N[C@H]1CSSC[C@@H](C(=O)N[C@@H](Cc2c[nH]c3ccccc23)C(=O)N2CCC[C@H]2C(=O)NCC(=O)NCC(=O)N[C@@H](CO)C(=O)NCC(=O)NCC(=O)N[C@@H](CO)C(=O)N[C@H](CCCCNC(=O)CN2CCN(CC(=O)O)CCN(CC(=O)O)CCN(CC(=O)O)CC2)C(N)=O)NC(=O)[C@H](CC(=O)O)NC(=O)[C@H](Cc2cnc[nH]2)NC(=O)[C@H](Cc2ccc3ccccc3c2)NC(=O)[C@H](CC(N)=O)NC(=O)[C@H](CC(N)=O)NC1=O` [compound 231, Ac-W-T-I-C(3)-N-N-(2Nal)-H-D-C(3)-W-P-G-G-S-G-G-S-[D-Lys(DOTA)]-NH2] (Ac-WTICNN[2Nal]HDCWPGGSGGS[dK](DOTA)-NH2; disulfide 4-10) cannot be ordered by pKd: greater than 9.00 for the first, greater than 9.00 for the second.

`CC[C@H](C)[C@H](NC(=O)[C@@H](NC(=O)[C@H](Cc1c[nH]c2ccccc12)NC(C)=O)[C@@H](C)O)C(=O)N[C@H]1CSSC[C@@H](C(=O)N[C@@H](Cc2c[nH]c3ccccc23)C(=O)N2CCC[C@H]2C(=O)NCC(=O)N[C@@H](CO)C(=O)NCC(=O)N[C@@H](CO)C(=O)NCC(=O)N[C@@H](CO)C(=O)N[C@H](CCCCNC(=O)CN2CCN(CC(=O)O)CCN(CC(=O)O)CCN(CC(=O)O)CC2)C(N)=O)NC(=O)C(CC(=O)O)NC(=O)[C@H](Cc2cnc[nH]2)NC(=O)[C@H](Cc2ccc3ccccc3c2)NC(=O)[C@H](CC(N)=O)NC(=O)[C@H](CC(N)=O)NC1=O` (stereo partly drawn) [compound 232, Ac-W-T-I-C(3)-N-N-(2Nal)-H-D-C(3)-W-P-G-S-G-S-G-S-[D-Lys(DOTA)]-NH2] (Ac-WTICNN[2Nal]H[ξD]CWPGSGSGS[dK](DOTA)-NH2; disulfide 4-10) and `CC[C@H](C)[C@H](NC(=O)[C@@H](NC(=O)[C@H](Cc1c[nH]c2ccccc12)NC(C)=O)[C@@H](C)O)C(=O)N[C@H]1CSSC[C@@H](C(=O)N[C@@H](Cc2c[nH]c3ccccc23)C(=O)N2CCC[C@H]2C(=O)N[C@@H](CCC(=O)N[C@H](CCCCNC(=O)CN2CCN(CC(=O)O)CCN(CC(=O)O)CCN(CC(=O)O)CC2)C(N)=O)C(=O)O)NC(=O)[C@H](CC(=O)O)NC(=O)[C@H](Cc2cnc[nH]2)NC(=O)[C@H](Cc2ccc3ccccc3c2)NC(=O)[C@H](CC(N)=O)NC(=O)[C@H](CC(N)=O)NC1=O` [compound 233, Ac-W-T-I-C(3)-N-N-(2Nal)-H-D-C(3)-W-P-gE-[D-Lys(DOTA)]-NH2] (Ac-WTICNN[2Nal]HDCWP[γGlu][dK](DOTA)-NH2; disulfide 4-10) cannot be ordered by pKd: greater than 9.00 for the first, greater than 9.00 for the second.

`CC[C@H](NC(C)=O)C(=O)N[C@H](C(=O)N[C@H](C(=O)N[C@H]1CSSC[C@@H](C(=O)N[C@@H](Cc2c[nH]c3ccccc23)C(=O)N2CCC[C@H]2C(=O)N[C@@H](CCC(=O)N[C@@H](CCC(=O)N[C@@H](CCC(=O)N[C@H](CCCCNC(=O)CN2CCN(CC(=O)O)CCN(CC(=O)O)CCN(CC(=O)O)CC2)C(N)=O)C(=O)O)C(=O)O)C(=O)O)NC(=O)[C@H](CC(=O)O)NC(=O)[C@H](Cc2cnc[nH]2)NC(=O)[C@H](Cc2ccc3ccccc3c2)NC(=O)[C@H](CC(N)=O)NC(=O)[C@H](CC(N)=O)NC1=O)[C@H](CC)c1c[nH]c2ccccc12)[C@@H](C)O` [compound 234, Ac-W-T-I-C(3)-N-N-(2Nal)-H-D-C(3)-W-P-gE-gE-gE-[D-Lys(DOTA)]-NH2] (Ac-[Abu]T[X3]CNN[2Nal]HDCWP[γGlu][γGlu][γGlu][dK](DOTA)-NH2; disulfide 4-10) and `CC[C@H](C)[C@H](NC(=O)[C@@H](NC(=O)[C@H](Cc1c[nH]c2ccccc12)NC(C)=O)[C@@H](C)O)C(=O)N[C@H]1CSSC[C@@H](C(=O)N[C@@H](Cc2c[nH]c3ccccc23)C(=O)N2CCC[C@H]2C(=O)N2CCC[C@@H]2C(=O)NCCOCCOCCOCCOCCOCCOCCOCCOCCC(=O)N[C@H](CCCCNC(=O)CN2CCN(CC(=O)O)CCN(CC(=O)O)CCN(CC(=O)O)CC2)C(N)=O)NC(=O)[C@H](CC(=O)O)NC(=O)[C@H](Cc2cnc[nH]2)NC(=O)[C@H](Cc2ccc3ccccc3c2)NC(=O)[C@H](CC(N)=O)NC(=O)[C@H](CC(N)=O)NC1=O` [compound 235, Ac-W-T-I-C(3)-N-N-(2Nal)-H-D-C(3)-W-P-(D-Pro)-PEG8-[D-Lys(DOTA)]-NH2] (Ac-WTICNN[2Nal]HDCWP[dP][PEG8][dK](DOTA)-NH2; disulfide 4-10) cannot be ordered by pKd: greater than 9.00 for the first, greater than 9.00 for the second.

`CCC(CC)[C@H](NC(=O)[C@@H](NC(=O)[C@H](Cc1c[nH]c2ccc(F)cc12)NC(C)=O)[C@@H](C)O)C(=O)N[C@H]1CSSC[C@@H](C(=O)N[C@@H](Cc2c[nH]c3ncccc23)C(=O)N2CC[C@H]2C(=O)N[C@@H](CCCCNC(=O)CN2CCN(CC(=O)O)CCN(CC(=O)O)CCN(CC(=O)O)CC2)C(N)=O)NC(=O)[C@H](CC(=O)O)NC(=O)[C@H](Cc2c[nH]cn2)NC(=O)[C@H](Cc2cccc3ccccc23)NC(=O)[C@H](CC(N)=O)NC(=O)[C@H](CC(N)=O)NC1=O` [compound 241, Ac-(5Fluoro-W)-T-(Env)-C(3)-N-N-(1Nal)-H-D-C(3)-(7Aza-W)-(Aze)-[D-Lys(DOTA)]-NH2] (Ac-[Trp(5-F)]T[Nva(3-Et)]CNN[1Nal]HDC[Trp(7-aza)][Aze]K(DOTA)-NH2; disulfide 4-10) was tested, and the pKd was 8.00 to 9.00.
